The target of assay [1] is T1, olfactory receptor OR51E2 (Homo sapiens, UniProt Q9H255).
T1 construct: endogenous in cells; host or cells: human intestinal organoids NEUROG3-dTomato / TPH1-mClover carrying the Tq-Ca-FLITS calcium sensor, differentiated to EECs
T1 sequence (Q9H255 1-320): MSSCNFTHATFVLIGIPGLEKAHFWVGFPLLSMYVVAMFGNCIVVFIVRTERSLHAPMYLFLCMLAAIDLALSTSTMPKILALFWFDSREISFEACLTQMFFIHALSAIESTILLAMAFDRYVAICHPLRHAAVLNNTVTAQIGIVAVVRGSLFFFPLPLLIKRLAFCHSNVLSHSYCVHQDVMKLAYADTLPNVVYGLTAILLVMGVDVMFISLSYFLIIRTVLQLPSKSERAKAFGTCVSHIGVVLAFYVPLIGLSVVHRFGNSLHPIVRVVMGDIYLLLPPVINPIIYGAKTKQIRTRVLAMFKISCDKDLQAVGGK
Description: Live cell imaging of calcium reporter (Tq-Ca-FLITS) organoids. It is filed as cell-based. To be noted: NEUROG3-dTomato TPH1-mClover CaFLITS-Turquoise reporter organoids; FIG. 2F. The procedure:
A red calcium probe (pTorPE-R-GECO1, addgene plasmid #32465) was used as a template to engineer a cyan genetically encoded calcium probe. The cpApple was replaced with a circular permuted mTurquoise. The resulting probe was dubbed Tq-Ca-FLITS (Turquoise Calcium Fluorescence Lifetime Indicator for Truthful Sensing). A triple nuclear localization signal (3×nls) was added to the N-terminus of the calcium probe to simplify analysis. Details of the engineering and characterization will be described elsewhere (Van der Linden et al., in preparation).
PCRs were performed on Tq-Ca-FLITS (Fw […]atgggatcagatccaaaaaagaagag, Rev […]c[…]) as well as H2B-mMaroon (Fw […], Rev […]attaagtttgtgcccc) and the two PCRs were cloned into a lentiviral vector using InPhusion Cloning (Takara), to produce H2B-mMaroon-P2A-Tq-Ca-FLITS, two simultaneously expressed cistrons separated by a de-optimized P2A (Lo et al., 2015).
H2B-mMaroon-P2A-Tq-Ca-FLITS organoids were imaged on a Leica SP8 confocal laser scanning microscope, equipped with Argon laser and White Light Laser, the latter allowing spectral flexibility for optimal visualization of all fluorophores. […]

Assay [2] has as its target T2, OR51E2 (Homo sapiens, UniProt Q9H255).
T2 construct: endogenous in cells; host or cells: human intestinal organoids NEUROG3-dTomato / TPH1-mClover carrying the Tq-Ca-FLITS calcium sensor, differentiated to EECs
T2 sequence (Q9H255 1-320): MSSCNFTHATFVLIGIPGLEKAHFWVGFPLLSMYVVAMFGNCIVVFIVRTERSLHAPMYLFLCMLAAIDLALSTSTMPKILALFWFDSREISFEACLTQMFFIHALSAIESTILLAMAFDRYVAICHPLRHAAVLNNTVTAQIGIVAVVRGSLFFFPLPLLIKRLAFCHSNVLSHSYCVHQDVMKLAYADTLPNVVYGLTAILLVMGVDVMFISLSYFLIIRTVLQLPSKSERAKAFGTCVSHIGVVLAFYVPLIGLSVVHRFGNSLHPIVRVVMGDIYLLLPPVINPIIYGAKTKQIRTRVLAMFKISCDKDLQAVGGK
The note with it: HEK cells after overexpression of OR51E2 (Pietraszewska-Bogiel et al., 2019); cited from earlier work.

Assay [3] concerns the target T2, OR51E2. Kind of assay: Calcium sensor (Tq-Ca-FLITS) response in TPH1-mClover NEUROG3-dTomato organoid. The note with it: for calcium flux in EECs (TPH1-negative): colon-derived reporter organoid. It is filed as cell-based. The text has this: (F) Fluorescent image of a TPH1^mClover NEUROG3^dTomato organoid that is transduced with the turquoise calcium sensor Tq-Ca-FLITS, containing a nuclear localization signal. Five examples of nuclei are highlighted of which the calcium response is followed after treatment with Beta-ionone, the agonist of OR51E2.
For example, in some embodiments, the compound is beta-ionone and the sensor is a calcium sensor. Beta-ionone is an agonist of the olfactory receptor OR51E2. The mouse homologue of OR51E2 had been reported to be expressed in mouse EECs (Fleischer et al., 2015; Jovancevic et al., 2017). However, prior to the invention, it was not known which human EECs OR51E2 is expressed in. Olfactory genes in humans and mice are very different as these genes quickly evolve. Therefore, the homology of these sequences tend to be low, and it is difficult to project expression profiles of mouse olfactory genes on humans. The inventors have found two olfactory receptors that are abundantly expressed in human EECs, OR51E1 and OR51E2. […] This provided proof-of-concept that sensors combined with hormone reporters from EEC-TAG can aid the study of functional signalling responses in human EEC subtypes. Thus, calcium reporters can be combined as a measure of hormone activation with the knowledge of the expression levels of targets such as olfactory receptors in subpopulations of EECs. Thus, the use of a reporter organoid in conjunction with a calcium reporter allows for screening for activators of targets such as cell surface receptors, e.g. olfactory receptors, and such methods are provided herein. In some embodiments, the calcium assay is conducted in an intestinal organoid which is not itself a reporter organoid and a reporter organoid is used to validate which EEC subtype the calcium is being activated in and so which hormones are being activated. […] This can be extrapolated to which EEC subtype hormone secretion is being activated in.
(In general: Calcium assays in cells follow changes in intracellular calcium, usually with a dye or a luminescent sensor.)

In a further assay the test system is MLK-7K. The note with it: target MLK-7K; cited from earlier work.
The subject of assay [4] is enteroendocrine cell differentiated organoids. Kind of assay: Hormone expression in EEC differentiated organoids treated with Midkine. Type of assay: cell-based, human.

Consider `CC(=O)/C=C/C1=C(C)CCCC1(C)C` [Beta-ionone], for which, in assay [1], the “calcium reporter response in EECs” value is “calcium sparking in EECs that were TPH1-negative”. On OR51E2 [2], the calcium response result is “elicit a calcium response”. In addition, on OR51E2 [3], the “calcium flux in non-EEC” value is “does not show calcium increases” and the “calcium flux in EECs (TPH1-negative)” value was “increases in calcium flux”. The “calcium flux in EECs (TPH1-negative)” value at OR51E2 [3] (listed as beta-ionone) is “calcium sparking”.

The term IC50 denotes the midpoint of a concentration-inhibition curve. Turning to `c1ccc(-c2n[nH]cc2-c2ccnc3ccccc23)nc1` [LY-36494, 4-[3-(2-Pyridinyl)-1H-pyrazol-4-yl]-quinoline], the IC50 in the assay with MLK-7K was 1400 nM.

B1: Midkine: heparin-binding growth factor, cytokine; sequence SEQ ID NO:69 (protein, listed as Homo sapiens)
chain: VAKKKDKVKKGGPGSECAEWAWGPCTPSSKDCGVGFREGTCGAQTQRIRCRVPCNWKKEFGADCKYKFENWGACDGGTGTKVRQGTLKKARYNAQCQETIRVTKPCTPKTKAKAKAKKGKGKD
For the molecule B1, the “expression of EEC hormones” value in assay [4] is recorded as “reduces the expression of all hormones”.

Values taken from patent publication US20240076624A1, “Methods and Tools for Studying Enteroendocrine Cells” (Koninklijke Nederlandse Akademie Van Wetenschappen, priority 2020, published 2024).
